≈ marks a conversion by molar mass, not a printed value. Where “and” joins values, the source holds several entries; their conditions need not be identical. Equal values may be shown once. Read-outs that look alike come from different tables or passages of the source. Numbered stars: 1 amine (or outer) side, 2 acyl side, 3 side chain; on linkers, the order of the positions; unused ones are H or OH. Square brackets hold non-standard residues; d marks the D form. Peptide text beside a SMILES is read from it. X1 = CC(C)[C@H](C)N(CC(=O)[*:2])[*:1]; Nspe = C[C@H](NCC(=O)O)c1ccccc1; Nphe = O=C(O)CNCc1ccccc1; Nlys = NCCCCNCC(=O)O
Assays:
B. subtilis (ATCC 6633) = assay type: cell-based
Method in brief: (§1)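 MICs by broth microdilution per CLSI M7-A6 in cation-adjusted Mueller-Hinton broth, using 2:1 serial dilutions of peptoid and a bacterial inoculum of 1×10^6 CFU/mL. Values reproducible over three experiments, each with two parallel trials.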

[1] = MTS assay, metabolic inhibition; assay type: cell-based, mouse
Method in brief: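 NIH/3T3 cells seeded at 5,000 per well, grown a day, then exposed to serially diluted peptoids in HBSS together with MTS reagent. Absorbance at 490 nm read after 3 hours at 37° C.; mean of six replicates.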

[2] = system: Klebsiella pneumoniae ATCC 33495; assay type: cell-based; conditions: for MIC K. pneumoniae ATCC 33495: Table 7A
Description: (§2) Antibacterial assays. MICs were determined according to CLSI M7-A6 protocols in a 96-well microtiter plate. In test wells, 50 μL bacterial inoculum (5×10^5 CFU/ml) in Mueller-Hinton broth (MHB) was added to 50 μL peptoid solution in MHB (prepared by 1:2 serial dilutions). Positive controls contained 50 μL inoculum and 50 μL MHB without peptoid. […] MIC values reported were reproducible between three independent experimental replicates, each consisting of two parallel trials. Broad-spectrum antimicrobial susceptibility testing was performed against BSL2 pathogens by Nova Biologicals, Inc. (Conroe, Tex.).
(§3) Broad-spectrum antibacterial assays. MICs of compounds were determined by microdilution procedure in Mueller-Hinton broth (MHB) in accordance with CLSI M7-A6 protocols in a manner similar to that described for the screen antibacterial assays. Inoculated microtiter plates were incubated at 35° C. for 24 hours prior to the result being recorded. Four ATCC strains that were used as standards are recommended by CLSI: Pseudomonas aeruginosa ATCC 27853, Escherichia coli ATCC 25922, Staphylococcus aureus ATCC 29213 and Enterococcus faecalis ATCC 29212. Other strains from the ATCC collection include Proteus vulgaris ATCC 49132, Proteus mirabilis ATCC 35659, Klebsiella pneumoniae ATCC 33495, Enterobacter aerogenes ATCC 35029 and Serratia marcescens ATCC 13880. S. aureus NRS100 (COL) is a well characterized methicillian-resistant S. aureus (MRSA) strain. The strains S. aureus VAN1 and S. aureus VAN2, vancomycin-resistant MRSA strains that were isolated in Michigan and Pennsylvania, were the first vancomycin-resistant strains clinically isolated. S. aureus NRS119 and S. aureus NRS120 are linezolid-resistant isolates from the Network on Antimicrobial Resistance in S. aureus (NARSA) collection. E. faecalis 99 and E. faecium 106 are vancomycin-resistant enterococcal strains.

[3] = system: Pseudomonas aeruginosa ATCC 27853; assay type: cell-based; conditions: for MIC P. aeruginosa ATCC 27853: Table 7A
Description: as §2, §3

[4] = system: Staphylococcus aureus NRS120; assay type: cell-based; conditions: for MIC S. aureus NRS120: Table 7A, linezolid-resistant
Description: as §2, §3

[5] = system: Staphylococcus aureus VAN2; assay type: cell-based; conditions: for MIC S. aureus VAN2: Table 7A, MRSA, vancomycin-resistant
Description: as §2, §3

human erythrocytes = experiment: Hemolysis assay; assay type: cell-based
Method in brief: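 Peptoid serial dilutions in PBS pH 7.4 were combined with an equal volume of 20 vol % washed human red cells (heparinised blood) for 1 h at 37 °C. After dilution and pelleting at 1200 g, released haemoglobin in supernatant was read at A350, scaled between PBS and 0.2 vol % Triton X-100 controls.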

E. coli (ATCC 35218) = assay type: cell-based
Method in brief: as §1

| Compound | B. subtilis MIC (B. subtilis (ATCC 6633); ATCC 6633) | IC50 [1] | MIC Klebsiella pneumoniae ATCC 33495 ([2]; ATCC 33495) | MIC K. pneumoniae ATCC 33495 [2] | MIC Pseudomonas aeruginosa ATCC 27853 ([3]; ATCC 27853) | MIC P. aeruginosa ATCC 27853 [3] | MIC Staphylococcus aureus NRS120 ([4]; NRS120) | MIC S. aureus NRS120 [4] | MIC S. aureus VAN2 [5] | MIC Staphylococcus aureus VAN2 ([5]; VAN2) | HD10 (human erythrocytes) | HD50 (human erythrocytes) | E. coli MIC (E. coli (ATCC 35218); Table 6, ATCC 35218) | other results |
| --- | --- | --- | --- | --- | --- | --- | --- | --- | --- | --- | --- | --- | --- | --- |
| NCCCCNCC(=O)N(CC(=O)N(CC(=O)N(CCCCN)CC(=O)N(CC(=O)N(CC(=O)N(CCCCN)CC(=O)N(CC(=O)N(CC(=O)N(CCCCN)CC(=O)N(CC(=O)N(CC(N)=O)Cc1ccccc1)Cc1ccccc1)Cc1ccccc1)Cc1ccccc1)Cc1ccccc1)Cc1ccccc1)Cc1ccccc1)Cc1ccccc1 [1achiral, H-(Nlys-Npm-Npm)4-NH2] (H-[Nlys][Nphe][Nphe][Nlys][Nphe][Nphe][Nlys][Nphe][Nphe][Nlys][Nphe][Nphe]-NH2) | 0.78 µM | 16 µM | 4.7 µM (≈ 8.02 µg/mL) | 8 µg/mL (≈ 4.69 µM) | 9.4 µM (≈ 16 µg/mL) | 16 µg/mL (≈ 9.37 µM) | 9.4 µM (≈ 16 µg/mL) | 16 µg/mL (≈ 9.37 µM) | 8 µg/mL (≈ 4.69 µM) | 4.7 µM (≈ 8.02 µg/mL) | – | – | – | – |
| CC(C)[C@H](C)N(CC(=O)N(CC(=O)N(CCCCN)CC(=O)N(CC(=O)N(CC(=O)N(CCCCN)CC(=O)N(CC(=O)N(CC(=O)N(CCCCN)CC(=O)N(CC(=O)N(CC(N)=O)[C@@H](C)c1ccccc1)[C@@H](C)C(C)C)[C@@H](C)c1ccccc1)[C@@H](C)C(C)C)[C@@H](C)c1ccccc1)[C@@H](C)C(C)C)[C@@H](C)c1ccccc1)C(=O)CNCCCCN [1-Nsdp2,5,8,11, H-(Nlys-Nsdp-Nspe)4-NH2] (H-[Nlys][X1][Nspe][Nlys][X1][Nspe][Nlys][X1][Nspe][Nlys][X1][Nspe]-NH2) | 0.78 µM | 20 µM | 4.8 µM (≈ 8.08 µg/mL) | 8 µg/mL (≈ 4.75 µM) | 9.5 µM (≈ 16 µg/mL) | 16 µg/mL (≈ 9.51 µM) | 9.5 µM (≈ 16 µg/mL) | 16 µg/mL (≈ 9.51 µM) | 8 µg/mL (≈ 4.75 µM) | 4.8 µM (≈ 8.08 µg/mL) | 111 µM | > 200 µM | 12.5 µM | – |
| C[C@@H](c1ccccc1)N(CC(N)=O)C(=O)CN(C(=O)CN(CCCCN)C(=O)CN(C(=O)CN(C(=O)CN(CCCCN)C(=O)CN(C(=O)CN(C(=O)CN(CCCCN)C(=O)CN(C(=O)CN(C(=O)CNCCCCN)[C@@H](C)c1ccccc1)[C@@H](C)c1ccccc1)[C@@H](C)c1ccccc1)[C@@H](C)c1ccccc1)[C@@H](C)c1ccccc1)[C@@H](C)c1ccccc1)[C@@H](C)c1ccccc1 [compound 1, H-(NLys-Nspe-Nspe)4-NH2] (H-[Nlys][Nspe][Nspe][Nlys][Nspe][Nspe][Nlys][Nspe][Nspe][Nlys][Nspe][Nspe]-NH2) | – | – | – | – | – | – | – | – | – | – | – | – | 6.25 µM and 6.3 µM | HD10 (10% hemolytic dose) (human erythrocytes; Table 1, human erythrocytes): 21 µM; HD50 (50% hemolytic dose) (human erythrocytes; Table 1, human erythrocytes): 100 µM; HD10 (human erythrocytes; Table 2): 18 µM; HD50 (human erythrocytes; Table 2): 72 µM; HD10 (human erythrocytes; Table 3): 21 µM; HD50 (human erythrocytes; Table 3): 100 µM; HD10 (human erythrocytes; Table 6): 21 µM; HD50 (human erythrocytes; Table 6): 100 µM; B. subtilis MIC (B. subtilis (ATCC 6633); Table 3, ATCC 6633, cation-adjusted MHB): 1.6 µM; B. subtilis MIC (B. subtilis (ATCC 6633); Table 6, ATCC 6633): 1.6 µM; E. coli MIC (E. coli (ATCC 35218); Table 3, ATCC 35218, cation-adjusted MHB): 6.3 µM; IC50 ([1]; Table 6, NIH 3T3 mouse fibroblast cells): 5.1 µM; MIC Klebsiella pneumoniae ATCC 33495 ([2]; Table 4, Gram −): 8.8 µM (≈ 16 µg/mL); MIC Pseudomonas aeruginosa ATCC 27853 ([3]; Table 4, Gram −): 4.4 µM (≈ 8.01 µg/mL); MIC Staphylococcus aureus NRS120 ([4]; Table 4, Gram +): 4.4 µM; MIC Staphylococcus aureus VAN2 ([5]; Table 4, vancomycin resistant): 2.2 µM (≈ 4 µg/mL) |
| C[C@@H](c1ccccc1)N(CC(N)=O)C(=O)CN(C(=O)CN(CCCCN)C(=O)CN(C(=O)CN(C(=O)CN(CCCCN)C(=O)[C@@H]1CCCN1C(=O)CN(C(=O)CN(CCCCN)C(=O)CN(C(=O)CN(C(=O)CNCCCCN)[C@@H](C)c1ccccc1)[C@@H](C)c1ccccc1)[C@@H](C)c1ccccc1)[C@@H](C)c1ccccc1)[C@@H](C)c1ccccc1)[C@@H](C)c1ccccc1 [1-Pro6, H-Nlys-Nspe-Nspe-Nlys-Nspe-L-Pro-(Nlys-Nspe-Nspe)2-NH2] (H-[Nlys][Nspe][Nspe][Nlys][Nspe]P[Nlys][Nspe][Nspe][Nlys][Nspe][Nspe]-NH2) | 1.6 µM | 18 µM | 9.1 µM (≈ 16 µg/mL) | – | 18.2 µM (≈ 31.9 µg/mL) | – | 9.1 µM (≈ 16 µg/mL) | – | – | 4.6 µM (≈ 8.07 µg/mL) | 83 µM | > 200 µM | – | HD10 (10% hemolytic dose) (human erythrocytes; red cells of human, 1 h): 63 µM; HD50 (50% hemolytic dose) (human erythrocytes; red cells of human, 1 h): > 110 µM; E. coli MIC (E. coli (ATCC 35218); ATCC 35218): 12.5 µM |

Source: US20100036088A1, “Selective poly-N-substituted glycine antibiotics” (priority 2008, published 2010)
